Measured values from patent US20240239788A1, “SMALL MOLECULE INHIBITORS OF KRAS G12D MUTANT” (Merck Sharp & Dohme LLC, priority 2021, published 2024).
Like-named read-outs stand apart in the source and are kept apart here.

Tests used:
[1] = target: KRAS protein containing G12D mutation (Homo sapiens (Human), UniProt P01116, G12D); assay: SOS-catalyzed nucleotide exchange assay (GNE), TR-FRET; format: biochemical; conditions: biotinylated KRAS G12D, SOS and GTP, 60-minute incubation
Method: Compounds are added to this complex and then after a 60-minute incubation time the mixture is treated with SOS and unlabeled GTP. Small molecule inhibitors stabilize the Bodipy-GDP complex whereas the untreated protein rapidly exchanges Bodipy-GDP for unlabeled GTP resulting in reduced TR-FRET signal.
This solution is referred to as biotinylated KRAS G12D stock solution.

[2] = test system: AsPC-1 cells containing homozygous KRAS-G12D activating mutation; assay: Cellular phospho-ERK assay with 10% FBS (Examples 107a-256); format: cell-based
Method: 5% CO2 for 2 hours. […] Assay plates were read on a EnVision Multimode Plate Reader (PerkinElmer) and the ratio of p-Erk vs total Erk in each well was used as the final readout.

[3] = read-out: IC50 (nM) pERK (cell with FBS 10%), AsPC-1 cells, 10% fetal bovine serum, 2 hours, ratio of p-Erk vs total Erk
[4] = Homo sapiens, ASPC1, 2 h, read-out: IC50 (nM) pERK (cell with FBS 10%), AsPC-1 cells, 10% fetal bovine serum, 2 hours, ratio of p-Erk vs total Erk

Sequence of KRAS protein containing G12D mutation (P01116 other isoform, or with tags, fused parts or gaps G12D (already in the parent)): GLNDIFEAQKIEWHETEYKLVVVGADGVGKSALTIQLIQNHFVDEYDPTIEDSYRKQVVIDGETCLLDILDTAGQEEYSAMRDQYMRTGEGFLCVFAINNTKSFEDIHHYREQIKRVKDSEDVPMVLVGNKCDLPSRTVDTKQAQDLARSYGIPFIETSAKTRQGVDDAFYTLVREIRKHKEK

**Q.** `C[C@]12CCC(CN(c3nc(OC[C@]4(CN[C@@H]5CC[C@H](O)C5)CC4(F)F)nc4c(F)c(-c5cc(O)cc6cccc(Cl)c56)c(F)cc34)C1)N2` (single isomer, unassigned) [Ex. 219a] was tested. Which IC50 [1] did it give?
**A.** 3.27 nM

**Q.** What about the IC50 [2, 3] of the same compound?
**A.** 1250 nM

**Q.** How did the IC50 [1] turn out when `Fc1cc2c(N3C[C@H]4CC[C@@H](C3)N4)nc(OC[C@@]34CCCN3C[C@H](F)C4)nc2c(F)c1-c1ccnc2cccc(Cl)c12` [Ex. 194, 4-((1R,5S)-3,8-diaza-bicyclo[3.2.1]octan-3-yl)-7-(5-chloroquinolin-4-yl)-6,8-difluoro-2-(((2R,7aS)-2-fluoro-tetrahydro-1H-pyrrol-izin-7a(5H)-yl)meth-oxy)quinazoline] was run?
**A.** 1920 nM

**Q.** And the IC50 [2, 4]?
**A.** 11800 nM

**Q.** How did the IC50 [1] turn out when `Nc1nc2c(-c3c(Cl)cc4c(N5CC6CCC(C5)N6)nc(OC[C@@]56CCCN5C[C@H](F)C6)nc4c3F)c(F)cc(F)c2o1` (single isomer, unassigned) [Ex. 133b] was run?
**A.** 1.16 nM

**Q.** And the IC50 [2, 3]?
**A.** 410 nM

**Q.** Which results are given for `C[C@]12CCC(CN(c3nc(OCC45CCCN4CC(C(F)F)C5)nc4c(F)c(-c5cc(O)cc6cccc(Cl)c56)c(F)cc34)C1)N2` (single isomer, unassigned) [Ex. 173-1b]?
**A.** IC50 [1]: 22.1 nM; IC50 [2, 3]: 2890 nM

**Q.** Which IC50 [1] does the source give for `C#Cc1cccc2c(F)c(O)cc(-c3c(F)cc4c(N5C[C@H]6CC[C@@](C)(C5)N6)nc(OC[C@@]56CCCN5C[C@H](F)C6)nc4c3F)c12` [202b, 4-(6,8-difluoro-2-(((2R,7aS)-2-fluorotetrahydro-1H-pyrrolizin-7a(5H)-yl)methoxy)-4-((1S,5R)-1-methyl-3,8-diazabicyclo[3.2.1]octan-3-yl)quinazolin-7-yl)-5-ethynyl-1-fluoronaphthalen-2-ol] here?
**A.** 3.94 nM

**Q.** What about the IC50 [2, 4] of the same compound?
**A.** 302 nM

**Q.** Which IC50 [1] does the source give for `C#Cc1c(F)ccc2cccc(-c3c(F)cc4c(N5CC6CCC(C5)N6)nc(OC[C@@]56CCCN5[C@H](CO)CC6)nc4c3F)c12` (single isomer, unassigned) [Ex. 142] here?
**A.** 1.57 nM

**Q.** And the IC50 [2, 4]?
**A.** 384 nM

**Q.** Which results are given for `C#Cc1c(F)ccc2cccc(-c3c(F)cc4c(N5CC6CC[C@@](C)(C5)N6)nc(OCC56CCCN5C(COC(=O)N(C)C)CC6)nc4c3F)c12` (single isomer, unassigned) [242b]?
**A.** IC50 [1]: 93.5 nM; IC50 [2, 3]: 1080 nM

**Q.** What does the source list for `C#Cc1c(F)ccc2cccc(-c3c(F)cc4c(N5C[C@H]6CC[C@@](C)(C5)N6)nc(OC[C@@]56CCCN5[C@H](CF)CC6)nc4c3F)c12` (single isomer, unassigned) [Ex. 149]?
**A.** IC50 [1]: 103 nM; IC50 [2, 4]: 4490 nM

**Q.** With `C[C@]12CC[C@H](CN(c3nc(OC[C@@]45CCCN4C[C@H](F)C5)nc4c(F)c(-c5c(F)cc(F)c6oc(N)nc56)c(Cl)cc34)C1)N2` (single isomer, unassigned) [Ex. 170b] as the compound, how does the IC50 [1] read?
**A.** 874 nM

**Q.** What about the IC50 [2, 3] of the same compound?
**A.** 14900 nM

**Q.** For `C#Cc1cccc2c(F)c(O)cc(-c3c(F)cc4c(N5C[C@H]6CC[C@@](C)(C5)N6)nc(OC[C@@]56CCCN5C[C@H](F)C6)nc4c3F)c12` [202a, 4-(6,8-difluoro-2-(((2R,7aS)-2-fluorotetrahydro-1H-pyrrolizin-7a(5H)-yl)methoxy)-4-((1.5R)-1-methyl-3,8-diazabicyclo[3.2.1]octan-3-yl)quinazolin-7-yl)-5-ethynyl-1-fluoronaphthalen-2-ol], which IC50 [1] is on record?
**A.** 302 nM

**Q.** And the IC50 [2, 3]?
**A.** 11500 nM

**Q.** How did the IC50 [1] turn out when `COCC1CCN(C[C@@]2(COc3nc(N4CC5CC[C@@](C)(C4)N5)c4cc(F)c(-c5cc(O)cc6cccc(Cl)c56)c(F)c4n3)CC2(F)F)C1` (single isomer, unassigned) [Ex. 214b] was run?
**A.** 180 nM

**Q.** What about the IC50 [2, 3] of the same compound?
**A.** 9070 nM

**Q.** For `Cc1nc2[nH]nc(C)c2c(-c2c(F)cc3c(N4C[C@H]5CC[C@@H](C4)N5)nc(OC[C@@]45CCCN4C[C@H](F)C5)nc3c2F)c1C(F)(F)F` (single isomer, unassigned) [250b], which IC50 [1] is on record?
**A.** 1.54 nM

**Q.** And the IC50 [2, 3]?
**A.** 63.1 nM
